43 compounds from patent publication US11884627B2, “Compounds and compositions for treating conditions associated with LPA receptor activity” (Lhotse Bio, Inc., priority 2022, dated 2024) can be followed below.

In this test the target is T1, human LPA1 (Homo sapiens, UniProt Q92633).
T1 construct: expressed in transfected cells; host or cells: CHO-K1
Put plainly: In vitro LPA1 calcium flux antagonist assay - Bioduro protocol. It counts as cell-based. The settings on record: CHO-K1 cells overexpressing human LPA1 and G15a, LPA challenge at EC80. As for the experimental part: In Vitro LPA1 Calcium Flux Antagonist Assay—Bioduro Protocol
CHO-K1 cells overexpressing human LPA1 and G15a were seeded at a total volume of 20 μL (15000 cells/well) into Matrigel pre-coated 384-well plates (corning −3764) and incubated at 37° C. After overnight incubation, the cells were serum starved for 4 h. Assays were performed in dye loading buffer containing 1× Fluo-8 AM (AAT Bioquest, 21080) and 2.5 mM probenecid (Thermo Fisher, 36400) in HBSS/20 mM Hepes. After cell starvation, the medium was replaced with 20 μL of dye loading buffer and incubated at 37° C., for 30 min. Then 5 μL of 5× compound titrated in dye loading buffer was added to the cells and incubated for 30 min followed by LPA challenge at EC80. Calcium mobilization was measured on a FLIPR Tetra (MSD). For LPA EC80 determination, starved cells were incubated with 20 μL of dye loading buffer for 1 h, then 5 μL of 5×LPA titrated in dye loading buffer was added to the cells. Calcium signals induced by LPA was monitors on a FLIPR.
Percentage inhibition is calculated using the following formula: % Inhibition=100%×(1−(mean RFU of test sample−mean RFU of DMSO)/(mean RFU of LPA control−mean RFU of DMSO)).
Table B3 and Table B4 show the biological activity of compounds in in vitro LPA1 Calcium flux antagonist assay—Bioduro protocol.
A general note: A change in cytosolic calcium serves as a functional read-out for many receptors and channels.

Where [1] appears, read: calcium mobilization on FLIPR Tetra, read-out: IC50.
[2] abbreviates: Table B3, read-out: Activity (IC50 class).

SMILES strings stand for the structures. Read-outs that look alike come from different tables or passages of the source.

T1 sequence (Q92633 whole entry): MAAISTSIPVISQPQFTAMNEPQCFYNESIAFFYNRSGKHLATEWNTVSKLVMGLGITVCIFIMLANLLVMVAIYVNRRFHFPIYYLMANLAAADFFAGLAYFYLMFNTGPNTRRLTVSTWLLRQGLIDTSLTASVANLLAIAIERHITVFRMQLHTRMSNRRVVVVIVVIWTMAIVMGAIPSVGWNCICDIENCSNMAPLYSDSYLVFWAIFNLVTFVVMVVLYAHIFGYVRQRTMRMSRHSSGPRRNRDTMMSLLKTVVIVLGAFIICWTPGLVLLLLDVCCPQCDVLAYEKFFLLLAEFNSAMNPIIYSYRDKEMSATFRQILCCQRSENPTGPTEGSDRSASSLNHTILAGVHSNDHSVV

One may read the IC50 as the concentration at which inhibition is half-maximal. On to `COC(=O)NC1CCC(Nc2ccc(-c3cc(OC)c(C)c(OC)c3)c(COC3CCCC3)c2)(C(=O)O)CC1` (centres unmarked) [Compound 208], for which the IC50 under setting [1] was found to be 56.4 nM and the IC50 under setting [2] was less than 100 nM.
For `CCOc1cc(OC)cc(-c2ccc(NC3(C(=O)O)CCOCC3)cc2COC2CC2)n1` [Compound 324], the IC50 by setting is: under setting [1], more than 10000 nM; under setting [2], more than 1000 nM.
Consider `COc1cc(-c2c(COC3CCCC3)cc(NC3(C(=O)O)CCOCC3)cc2C(F)(F)F)cc(OC)c1C` [Compound 275], for which the IC50 runs as follows: under setting [1], 229 nM; under setting [2], 100 to 1000 nM.
Consider `CCOc1nccc(-c2ccc(NC3(C(=O)O)CCOCC3)cc2COC2CC2)c1C(F)F` [Compound 338], for which the IC50 runs as follows: under setting [1], 17.2 nM; under setting [2], less than 100 nM.
As for `CCOc1cccc(-c2ccc(NC3(C(=O)O)CCOCC3)cc2CCC2CCCC2)c1F` [Compound 272], the IC50 by setting is: under setting [1], 6.96 nM; under setting [2], less than 100 nM.
For `COc1cc(-c2ccc(NC3(C(=O)O)CCCOC3)cc2COC2CCCC2)c(C)c(OC)c1C` (single isomer, unassigned) [Compound 200], in that order: 772 nM and 100 to 1000 nM.
For `COc1cc(-c2ccc(OC3(C(=O)O)CCOCC3)cc2COC2CC2)c(C)c(OC)c1C` [Compound 354], in that order: 35.5 nM and less than 100 nM.
The like results for `CCOc1cccc(-c2ccc(OC3(C(=O)O)CCC3)cc2COC2CC2)c1` [Compound 377] were, in that order, more than 10000 nM and more than 1000 nM.
In the case of `CCOc1cccc(-c2ccc(NC3(C(=O)O)CCC(F)(F)CC3)cc2COC2CC2)c1Cl` [Compound 385], the IC50 under setting [1] is 0.633 nM and the IC50 under setting [2] was less than 100 nM.
Regarding `COc1cc(-c2ccc(NC3(C(=O)O)CCOCC3)cc2COC2CCCC2)c(OC)c(OC)c1C` [Compound 220], the IC50 by setting is: under setting [1], 81.6 nM; under setting [2], 100 to 1000 nM.
The like results for `CCOc1c(C)ccc(-c2ccc(NC3(C(=O)O)CCOCC3)cc2COCC(C)C)c1C` [Compound 394] were, in that order, 97.6 nM and less than 100 nM.
The like results for `COc1cc(-c2ccc(NC3(C(=O)O)CCN(C(C)=O)CC3)cc2COC2CCCC2)cc(OC)c1C` [Compound 139] were, in that order, 353 nM and 100 to 1000 nM.
For `COc1cc(-c2ccc(NC3(C(=O)O)CCOCC3)cc2COC2COc3ccccc32)cc(OC)c1C` (single isomer, unassigned) [Compound 217], in that order: 584 nM and 100 to 1000 nM.
For the compound `CCOc1c(C)c(OC)cc(-c2ccc(NC3(C(=O)O)CCOCC3)cc2COC2CC2)c1F` [Compound 312], the IC50 was 5.44 nM under setting [1] and less than 100 nM under setting [2].
As to `COc1cc(OC2CC2)cc(-c2ccc(NC3(C(=O)O)CCOCC3)cc2COC2CC2)c1` [Compound 332], the IC50 under setting [1] stood at 139 nM and the IC50 under setting [2] is less than 100 nM.
For `COC(=O)N1CC(Nc2ccc(-c3cc(OC)c(C)c(OC)c3C)c(COC3CCCC3)c2)(C(=O)O)C1` [Compound 195], in that order: 760 nM and more than 1000 nM.
Regarding `COc1cc(-c2ccc(NC3(C(=O)O)CC(O)C3)cc2COC2Cc3ccccc3C2)cc(OC)c1C` (centres unmarked) [Compound 131], the half-inhibitory concentration (IC50) under setting [1] stood at 190 nM and the IC50 under setting [2] lay in the range of 100 to 1000 nM.
In the case of `CCOc1cncc(-c2ccc(NC3(C(=O)O)CCOCC3)cc2COC2CC3CC3C2)c1C` (centres unmarked) [Compound 416, 4-{[3-({bicyclo[3.1.0]hexan-3-yloxy}methyl)-4-(5-ethoxy-4-methylpyridin-3-yl)phenyl]amino}oxane-4-carboxylic acid], the IC50 is 8.79 nM under setting [1] and less than 100 nM under setting [2].
In the case of `COc1cc(-c2c(C)cc(OC3(C(=O)O)CCOCC3)cc2COC2CCCC2)cc(OC)c1C` [Compound 163], the half-maximal inhibitory concentration (IC50) is 382 nM under setting [1] and 100 to 1000 nM under setting [2].
For `CCOc1cccc(-c2ccc(NC3(C(=O)O)CCOCC3)cc2COC2CCCC2)c1F` [Compound 245, 4-((2-((cyclopentyloxy)methyl)-3′-ethoxy-2′-fluoro-[1,1′-biphenyl]-4-yl)amino)tetrahydro-2H-pyran-4-carboxylic acid], in that order: 23.2 nM and less than 100 nM.
The like results for `COc1cc(-c2ccc(C3(C(=O)O)CC3)cc2COC2Cc3ccccc3C2)cc(OC)c1C` [Compound 118, 1-{2-[(2,3-dihydro-1H-inden-2-yloxy)methyl]-3′,5′-dimethoxy-4′-methyl-[1,1′-biphenyl]-4-yl}cyclopropane-1-carboxylic acid] were, in that order, 96.4 nM and less than 100 nM.
Consider `CCOc1cncc(-c2ccc(NC3(C(=O)O)CCOCC3)c(F)c2COC2CC2)c1C(F)F` [Compound 409], for which the IC50 is, setting by setting: under setting [1], 229 nM; under setting [2], 100 to 1000 nM.
For `COC(=O)N1CCCC(Nc2cc(C)c(-c3cc(OC)cc(OC)c3)c(COC3CCCC3)c2)(C(=O)O)C1` (centres unmarked) [Compound 211], in that order: more than 10000 nM and more than 1000 nM.
As for `COc1cc(OC)c(F)c(-c2ccc(NC3(C(=O)O)CCOCC3)cc2COC2CC2)c1` [Compound 292], the IC50 was 117 nM under setting [1] and 100 to 1000 nM under setting [2].
As to `COc1c(C)ccc(-c2ccc(NC3(C(=O)O)CCOCC3)cc2COC2CCCC2)c1C` [Compound 181], the IC50 runs as follows: under setting [1], 55.2 nM; under setting [2], less than 100 nM.
For `COc1cc(OC)c(Cl)c(-c2ccc(NC3(C(=O)O)CCOCC3)cc2COC2CC2)c1` [Compound 303], in that order: 12.3 nM and less than 100 nM.
Consider `COc1cc(OC)cc(-c2c(C)cc(NC3(C(=O)O)Cc4ccccc4C3)cc2COC2CCCC2)c1` [Compound 188], for which the IC50 is, setting by setting: under setting [1], 2730 nM; under setting [2], more than 1000 nM.
The like results for `COc1cc2c(c(-c3ccc(NC4(C(=O)O)CCOCC4)cc3COC3CCCC3)c1)OCO2` [Compound 199] were, in that order, 3210 nM and more than 1000 nM.
`COc1cc(OC)c(C)c(-c2ccc(NC3(C(=O)O)CCOCC3)cc2COC2CCCC2)c1` [Compound 179]: the IC50 reads like this: under setting [1], 24.9 nM; under setting [2], less than 100 nM.
`CCOc1cccc(-c2ccc(NC3(C(=O)O)CCOCC3)cc2COC2CC2)c1F` [Compound 306]: the IC50 was 165 nM under setting [1] and 100 to 1000 nM under setting [2].
The like results for `COc1cc(-c2ccc(NC3(C(=O)O)CCNCC3)cc2COC2CCCC2)cc(OC)c1C` [Compound 142] were, in that order, more than 10000 nM and more than 1000 nM.
The like results for `COc1cc(-c2c(C)cc(NC3(C(=O)O)CCOCC3)cc2COC2CCCC2)cc(OC)c1C` [Compound 141, 4-((2-((cyclopentyloxy)methyl)-3′,5′-dimethoxy-4′,6-dimethyl-[1,1′-biphenyl]-4-yl)amino) tetrahydro-2H-pyran-4-carboxylic acid] were, in that order, 24.5 nM and less than 100 nM.
The like results for `CCOCc1cc(NC2(C(=O)O)CCOCC2)ccc1-c1cc(OC)c(C)c(OC)c1F` [Compound 350] were, in that order, 4320 nM and more than 1000 nM.
As to `COc1cc(-c2ccc(NC3(C(=O)O)CCOCC3)cc2CCC2(C)Oc3ccccc3O2)cc(OC)c1C` [Compound 132, 4-({3′,5′-dimethoxy-4′-methyl-2-[2-(2-methyl-1,3-benzodioxol-2-yl)ethyl]-[1,1′-biphenyl]-4-yl}amino)oxane-4-carboxylic acid], the IC50 runs as follows: under setting [1], 20.1 nM; under setting [2], less than 100 nM.
The like results for `COc1cc(-c2ccc(NC3(C(=O)O)CCOCC3)cc2COC2CCCC2)c(F)c(OC)c1C(C)=O` [Compound 271] were, in that order, 21.4 nM and less than 100 nM.
For `Cc1cccc(-c2ccc(NC3(C(=O)O)CCOCC3)cc2COC2CC2)c1F` [Compound 328], in that order: more than 10000 nM and more than 1000 nM.
Regarding `COc1cc(-c2ccc(N(C)C3(C(=O)O)CCOCC3)cc2COC2CCCC2)c(F)c(OC)c1C` [Compound 239], the IC50 under setting [1] stood at 970 nM and the IC50 under setting [2] lay in the range of 100 to 1000 nM.
For `CCOc1cc(OC)cc(-c2ccc(NC3(C(=O)O)CCOCC3)cc2COC2CCCC2)c1F` [Compound 287], in that order: 2.46 nM and less than 100 nM.
As to `COc1cc(-c2ccc(NC3(C(=O)O)CCOCC3)cc2COC2CC2)c(F)c(OC)c1C#N` [Compound 342], the IC50 was 19.7 nM under setting [1] and less than 100 nM under setting [2].
For `COc1cc(-c2ccc(OC3(C(=O)O)CC3)cc2COC2Cc3ccccc3C2)cc(OC)c1C` [Compound 117, 1-({2-[(2,3-dihydro-1H-inden-2-yloxy)methyl]-3′,5′-dimethoxy-4′-methyl-[1,1′-biphenyl]-4-yl}oxy)cyclopropane-1-carboxylic acid], in that order: 60.5 nM and less than 100 nM.
For `COc1cc(-c2ccc(NC3(C(=O)O)CC(OC)C3)cc2COC2CCCC2)c(C)c(OC)c1C` (centres unmarked) [Compound 197], in that order: 12.5 nM and less than 100 nM.
For the compound `COc1cc(-c2ccc(NC3(C(=O)O)CC3)cc2COC2Cc3ccccc3C2)c(C)c(OC)c1C(C)=O` [Compound 122], the IC50 under setting [1] came to 112 nM and the IC50 under setting [2] lay within 100 to 1000 nM.
As for `COc1cc(C2CC2)cc(-c2ccc(NC3(C(=O)O)CCOCC3)cc2COC2CCCC2)c1F` [Compound 251], the IC50 by setting is: under setting [1], 40.2 nM; under setting [2], less than 100 nM.
